The record followed here is patent publication US20230067159A1, “ROR-GAMMA-T INHIBITOR, PREPARATION METHOD THEREOF AND USE THEREOF” (priority 2020, published 2023).

Data set [1] is described as follows: Stability in human liver microsomes. It counts as in vitro ADME. Particulars: pH 7.4; for half-life at 1.5 μM: human liver microsomes 0.5 mg protein/mL, compound 1.5 μM, NADPH, 37° C., read-out: Half-life t1/2; for CLint scaled at 1.5 μM: human liver microsomes, inferred in vivo intrinsic hepatic clearance rate. The protocol:
(§1) Biological Example 4 Stability of the Compounds of the Present Invention in Human and Rat Liver Microsomes
(§2) Human or rat liver microsomes were incubated in double wells in polypropylene tubes. A typical incubation mixture included human or rat liver microsomes (final concentration: 0.5 mg protein/mL), target compound (final concentration: 1.5 μM), and K-phosphate buffered solution (containing […] EDTA, 100 mM, pH=7.4) in a total volume of 30 μL. Compounds were dissolved in DMSO and diluted with K-phosphate buffered solution to give a final working solution concentration of 30 μM. After 10 min of pre-incubation, 25 μL of test compound or positive control solution was transferred to the microsomal solution. The mixture was mixed well and 30 μL of the mixture was immediately pipetted, ice-cold acetonitrile was added, then 15 μL of NADPH was added as T0. 15 μL of NADPH (final concentration: 2 mM) was added to 30 μL of the mixture for the enzymatic reaction, and the entire experiment was carried out in an incubation tube at 37° C. At various time points (0, 20 and 60 min), the reaction was stopped by adding 150 μL of acetonitrile (with internal standard). The protein was removed by centrifugation at 4000 rpm for 10 min, and the supernatant was collected and analyzed by LC-MS/MS.
(§3) For each reaction, the concentration of compound in the incubation of human or rat liver microsomes was plotted (expressed as a percentage) as a percentage relative to the zero time point to infer in vitro metabolic half-life and in vivo intrinsic hepatic clearance rate.

The nature of data set [2]: Stability in rat liver microsomes. Particulars: pH 7.4; for half-life at 1.5 μM: rat liver microsomes 0.5 mg protein/mL, compound 1.5 μM, NADPH, 37° C., read-out: Half-life t1/2; for CLint scaled at 1.5 μM: rat liver microsomes, inferred in vivo intrinsic hepatic clearance rate. It counts as in vitro ADME. As for the experimental part:
as §1, §2, §3

The target in a further data set is T1, RORγ (Homo sapiens, UniProt P51449).
T1 construct: The concentration of B-RORγ LBD was 40 nM
T1 sequence (P51449 269-508 limits assumed): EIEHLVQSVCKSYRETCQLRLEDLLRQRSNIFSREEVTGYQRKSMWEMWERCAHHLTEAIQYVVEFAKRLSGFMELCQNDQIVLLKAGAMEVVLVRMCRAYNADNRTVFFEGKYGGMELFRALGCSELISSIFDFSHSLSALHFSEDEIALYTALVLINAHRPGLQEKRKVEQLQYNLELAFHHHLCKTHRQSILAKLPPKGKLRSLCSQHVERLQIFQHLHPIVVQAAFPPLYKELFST
The data set can be described thus: Fluorescence resonance energy transfer (FRET) test, B-RORγ LBD / Biotin-SRC1. It counts as biochemical. The gist of the method:
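TR-FRET coactivator recruitment: biotinylated RORγ LBD (40 nM, 2× stock) on SA-APC with biotinylated SRC1 peptide (40 nM, 2× stock) on SA-Eu, in HEPES pH 7.4, 100 mM NaCl, 0.01% BSA, 10 mM DTT. Compounds in 11-point 3-fold DMSO series; 1 h room temperature. 665/615 ratio normalised to DMSO (Min) and 10 μM SRC (Max).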

The nature of data set [3]: Pharmacokinetic evaluation I in ICR mice. It counts as in vivo. Particulars: mouse, plasma, po; for bioavailability: p.o. 5 mg/kg, i.v. 1 mg/kg, read-out: Oral bioavailability (F); for AUC(0-t) / Cmax / half-life: 5 mg/kg. As for the experimental part:
Biological Example 2 Pharmacokinetic Evaluation I
ICR mice were weighed after an overnight fast for 15 h, and then randomly divided into groups according to body weight. The test compounds were formulated in a vehicle of 10% DMSO 10% kolliphor HS15^+ 80% Saline. For the test group administered intravenously (indicated by i.v.), the test animals were administered a dose of 1 mg/kg; for the test group administered by oral administration (indicated by p.o.), the test animals were administered a dose of 5 mg/kg. Then, at time points 0, 0.083 (intravenous injection group only), 0.25, 0.5, 1.0, 2.0, 5.0, 7.0 and 24 h, venous blood (approximately 0.2 mL) was collected and placed in an EDTAK2 anticoagulation tube, then centrifuged at 11,000 rpm for 2 min. Plasma was collected and stored at −20° C. or −70° C. until LC/MS/MS analysis. The drug concentration in plasma was measured at each time point, and the pharmacokinetic parameters were calculated according to the drug concentration-time curve.

Regarding `CCS(=O)(=O)c1ccc([C@H](CO)NC(=O)c2ccc(N3C[C@@H](Oc4ccc(C(F)(F)F)cc4)C[C@H]3COC(F)F)cc2)cc1` [Example 39], in data set [1], the half-life at 1.5 μM came to 3.53 h and the CLint scaled at 1.5 μM turned out to be 0.492 L/h/kg. Besides, in data set [2], the half-life at 1.5 μM turned out to be 5.62 h and the CLint scaled at 1.5 μM was 0.444 L/h/kg. On RORγ, this compound displayed an IC50 of 3 nM. For the same compound, in data set [3], the bioavailability amounted to 35%, the exposure AUC(0-t) stood at 11.4 µM·h, the peak level (Cmax) was 1.5 µM and the half-life was 3.9 h.

Consider `CCS(=O)(=O)c1ccc([C@H](CCO)NC(=O)c2ccc(N3C[C@@H](Oc4ccc(OC(F)(F)F)cc4)C[C@H]3COC(F)F)cc2)cc1` [Example 119, 4-((2S,4S)-2-((difluoromethoxy)methyl)-4-(4-(trifluoromethoxy)phenoxy)pyrrolidin-1-yl)-N—((S)-1-(4-(ethylsulfonyl)phenyl)-3-hydroxypropyl)benzamide], for which, in data set [1], the half-life at 1.5 μM stood at 5.25 h and the intrinsic clearance (CLint scaled) at 1.5 μM is 0.264 L/h/kg. For the same compound, in data set [2], the half-life at 1.5 μM was 7.17 h and the CLint scaled at 1.5 μM is 0.192 L/h/kg. The IC50 against RORγ worked out at 9.2 nM. Besides, in data set [3], the bioavailability turned out to be 71%, the area under the curve AUC(0-t) amounted to 28.5 µM·h, the highest level (Cmax) was 2.38 µM and the half-life is 6.5 h.
